Measured values taken from US7354739B2, “TML polynucleotides” (ZymoGenetics, Inc., priority 1997, dated 2008).

What was measured:
[1] = test system: antral portion of the stomach; assay: Antral stomach contractions monitored by transducing crystals in anesthetized rats; format: in vivo, Sprague-Dawley rats
Text: Two male Sprague-Dawley rats, approximately 12 weeks old (Harlan, Indianapolis, Ind.) were anesthetized with urethane and their stomachs were exposed through a small abdominal incision. Two 2.4 mm transducing crystals (Sonometrics, Ontario, Canada) were placed on the antral portion of the stomach such that circular contractions could be monitored as a change in the distance between the two crystals. The crystals were attached with VETBOND TISSUE ADHESIVE (3M, St. Paul, Minn.).
The amplitude of the NE-induced decrease was approximately 50% of the acetylcholine-induced increase in distance. Both responses were transient.
A negative control of 10 μl of phosphate buffer solution (PBS) applied topically between the crystals had no effect.
A 14 amino acid zsig33 peptide (from amino acid residue 24 (Gly) to amino acid residue 37 (Gln) of SEQ ID NO: 2) was dissolved in PBS) and 10 μl was applied topically for a final concentration of 1 μg, […]

[2] = test system: post-prandial glucose absorption; assay: Oral glucose challenge after oral zsig33 peptide in ob/ob mice; format: in vivo; conditions: 100 μg orally, 30 minutes prior to an oral glucose challenge
Procedure: Eight female ob/ob mice, approximately 6 weeks old (Jackson Labs, Bar Harbor, Me.) were adapted to a 4 hour daily feeding schedule for two weeks. After two weeks on the feeding schedule, the mice were give 100 μg of a 14 amino acid amino zsig33 peptide (from amino acid residue 24 (Gly) to amino acid residue 37 (Gln) of SEQ ID NO: 2) in 100 μl sterile 0.1% BSA by oral gavage, immediately after their eating period (post-prandially). Thirty minutes later, the mice were challenged orally with a 0.5 ml volume of 25% glucose. Retroorbital bleeds were done to determine serum glucose levels. Blood was drawn prior to zsig33 dosing, prior to oral glucose challenge, and at 1, 2, 4, and 20 hours following the glucose challenge.

stomach = assay: Transit of phenol red through the stomach (gastric emptying) of fasted rats; format: in vivo, Sprague-Dawley rats; conditions: 1 μg applied topically to the stomach; 30 minutes after gavage; compared to a scrambled peptide
Procedure: The effect of topically applied zsig33 peptide (amino acid 24 to 37 of SEQ ID NO: 2) on the transit of phenol red through the stomachs of fasted male Sprague-Dawley rats (Harlan, Indianapolis, Ind.) was evaluated. The rats (6 animals, 8 weeks old) were fasted 24 hrs prior to being anesthetized with urethane(0.5 ml/100 grams of 25% solution). After anesthetizing, the animals were orally gavaged with 1 ml of Phenol Red solution (50 mg/ml in 2% methylcellulose solution). The stomach of each animal was exposed through a small abdominal incision and either 1 μg zsig33 peptide or a 14 amino acid control of a scrambled sequence peptide was applied topically to the stomach five minutes following the gavage. The amount of Phenol Red remaining in the stomach was determined by measuring optical density of the extracted stomach contents 30 minutes after the gavage.

[3] = Fourteen-day twice-daily oral dosing in ob/ob mice: body weight, food intake, glucose clearance; format: in vivo; conditions: 1 μg/mouse orally twice daily for fourteen days
Procedure: Sixteen female ob/ob mice, 8 weeks old, (Jackson Labs, Bar Harbor, Me.) were adapted to a special 4 hour daily feeding schedule for two weeks. The were fed ad libitum from 7:30-11:30 am daily. After two weeks on the feeding schedule, the mice were divided into two groups of 8. One group was given 1.0 μg/mouse of zsig33-1 (14 amino acid peptide) and the other vehicle (a 14 amino acid scrambled sequence peptide) in 100 μl sterile 0.1% BSQA by oral gavage just prior to receiving food, and at the end of the 4 hour feeding period. The mice were […] twice daily for fourteen days, during which time food intake and body weight was measured daily. On day 14, immediately after the second oral gavage of the zsig33-1 peptide, the mice were challenged orally with an 0.5 ml volume of 25% glucose. Retro-orbital bleeds were done to determine serum glucose levels immediately prior to administration of the zsig33-1 peptide or vehicle ([…].), and also at 0, 1, 2, and 4 hours following the glucose challenge.

Compound	amplitude of the NE-induced decrease relative to the acetylcholine-induced increase in distance ([1]; 10 μl of 1 μM applied topically)	change in the distance between the two crystals ([1]; 10 μl of 1 μM applied topically to the stomach between the crystals)	change in crystal distance ([1]; 1 μg in 10 μl PBS applied topically)	rate and amplitude of the contractions (dose dependence) ([1]; 10 μg and 100 μg applied topically, compared with 1 μg)	post-prandial glucose absorption (serum glucose) [2]	reduction of the amount of Phenol Red remaining in the stomach (stomach)	daily body weight [3]	food intake [3]
NC[C@H](O)c1ccc(O)c(O)c1 [norepinephrine, reference compound]	approximately 50%	reduction in the distance between the two crystals						
zsig33-1: peptide corresponding to amino acid residue 24 (Gly) to residue 37 (Gln) of SEQ ID NO: 2; residues 1 to 14 of SEQ ID NO:11 (GSSFLSPEHQRVQQRKES; listed as Homo sapiens)			sustained, rhythmic increase and decrease in crystal distance	enhanced responses in both rate and amplitude	enhanced post-prandial glucose absorption	approximately 25%	no affect	no affect
